Assay results taken from article PMC6270570, “New Flurbiprofen Derivatives: Synthesis, Membrane Affinity and Evaluation of in Vitro Effect on β-Amyloid Levels” (Molecules, 2013).
Where two headings read alike, the source gives them in different places.

Legend:
[1] = IAM-HPLC affinity for membrane phospholipids (logKIAM/W); assay type: physicochemical; conditions: IAM.PC.MG column, pH 7.0 phosphate buffer/acetonitrile, extrapolated to 100% aqueous eluent
Procedure: n-Octanol/water partition coefficients were theoretically calculated by the program clogP for windows version 2.0 (Biobyte Corp., Claremont, CA, USA). Affinity for membrane phospholipids, so called “phospholipophilicity”, was measured by HPLC on a phospholipid stationary phase. […] liquid chromatograph (Waters-Millipore, Milford, MA, USA), equipped with a 7125 Rheodyne injection valve and a 486 UV detector (Waters) set at 246 nm, was used. The column was an IAM.PC.MG (Immobilized Artificial Membrane-PhosphatidylCholine-MethylGlycolate) (4.6 mm × 150 mm) (Regis Chemical Company, Morton Grove, IL, USA). The mobile phase was 0.01 M phosphate buffer at pH 7.0 and acetonitrile at percentages ranging from 10 to 35 percent (v/v) (from 1.0 to 4.0 mL/min). The chromatography was carried out at room temperature. All samples were dissolved in methanol (ca. 10^-3 M) and 20 μL samples were injected in the chromatograph. Chromatographic retention data are expressed as the logarithm of the capacity factor, log k, defined as: log k = log [(tr - t0)/t0] (1) where tr and t0 are the retention times of the drug and a non-retained compound (citric acid), respectively. The log k values relative to 100% aqueous eluent (logKIAM/W) were calculated by performing a polycratic method of extrapolation. Each compound was eluted with at least three different mobile phases containing acetonitrile in different percentages (φ). […] All values of log k reported are the average of at least three measurements; the 95% confidence interval never exceeded 0.04 for each log k value. Possible occurrence of retention changes due to column aging was monitored by checking the retention times of five test compounds (amlodipine, p-nitroaniline, toluene, isradipine, and ketoprofen).

[2] = PAMPA-BBB permeability (porcine polar brain lipid extract); assay type: in vitro ADME; conditions: PAMPA
Procedure: (§1) The following protocol was applied to measure the Pe through the artificial membrane to predict oral absorption and BBB permeation. In order to study the g.i. permeability, a 2% solution (w/v) of egg lecithin (phosphatidyl choline > 98%, PC) in dodecane was employed as an artificial membrane solution. The effective permeability of BBB was measured using phospholipid mixture from porcine polar brain lipid extract, composed by PC 12.6%, phosphatidylethanolamine (PE) 33.1%, phosphatidylserine (PS) 18.5%, phosphatidylinositol (PI) 4.1%, phospatidic acid (PA) 0.8% and 30.9% of other compounds (purchased from Avantis Polar Lipids, Alabaster, AL, USA). Each donor filtration plate well was then impregnated with 5 µL of this solution carefully, and immediately after 150 µL of phosphate buffer (pH 7.4/pH 6.5), containing co-drug 1 500 µM and iPrOH 20% as co-solvent was added. Then the drug-filled donor plate was placed into the acceptor plate that had been prefilled with the same buffer (300 µL) as acceptor solution. After plate lid was replaced, the resulting assembled donor-acceptor plates were incubated at r.t. for 2 h for PAMPA-GI and 18 h for PAMPA-BBB, following which drugs concentration in the acceptor and donor solutions were determined by HPLC [37].
(§2) Log Pe can be calculated from the equation below: [drawing 10] (2) where Pe is the effective permeability coefficient (cm x s^−1), VD is volume of donor compartment (0.15 cm^3) and VA is volume of acceptor compartment (0.30 cm^3), A is effective filter area (0.28 cm^2), t is incubation time for the assay (s), Cacceptor is the concentration of the compound in the acceptor compartment at the completion of the assay, and Cequilibrium is the concentration of compound at theoretical equilibrium.

[3] = system: APP; conditions: 24 h
Procedure: For detection of cell viability, a Trypan blue dye exclusion test has been performed [33].
Cell lysates (20 µg) have been electrophoresed and transferred to nitrocellulose membrane. […] Immunoreactive bands have been detected by ECL detection system (Amersham Intl., Buckinghamshire, UK) and analysed by densitometry. Densitometric values, expressed as Integrated Optical Intensity (I.O.I.), have been estimated in a CHEMIDOC XRS system by the QuantiOne 1-D analysis software (BioRad, Richmond, CA, USA). Values obtained have been normalized basing on densitometric values of internal β tubulin. Statistical analysis has been performed using the analysis of variance (ANOVA). Results have been expressed as mean ± SD. Values of p < 0.05 have been considered statistically significant.

[4] = system: Aβ-42; assay: Western blotting of Aβ-42 expression in CTXTNA2 astrocytes (in vitro γ-secretase activity); assay type: cell-based, rat; conditions: 24 h; for Aβ-42 production, effect in words: 1 µM to 100 µM, without affecting the APP level
Procedure: CTXTNA2 cell line, established from primary cultures of type 1 astrocytes from brain frontal cortex tissue of 1 day old rats, was obtained by ECACC (Salisbury, UK). Cells have been maintained in DMEM, 10% FBS at 37 °C, 5% CO2 until sub-confluence and incubated for 24 h with a DMSO solution of drug (concentrations ranging from 1 µM to 100 µM). For detection of cell viability, a Trypan blue dye exclusion test has been performed.
Cell lysates (20 µg) have been electrophoresed and transferred to nitrocellulose membrane. Nitrocellulose membranes, blocked in 5% non-fat milk, 10 mmol/L Tris pH 7.5, 100 mmol/L NaCl, 0.1% Tween-20, have been probed with mouse APP (Millipore, Billerica, MA, USA) and Aβ (Alpha Diagnostic Intl, San Antonio, TX, USA) monoclonal antibodies (Santa Cruz Biotechnology, Santa Cruz, CA, USA), then incubated in the presence of specific enzyme conjugated IgG horseradish peroxidase. Immunoreactive bands have been detected by ECL detection system (Amersham Intl., Buckinghamshire, UK) and analysed by densitometry. Densitometric values, expressed as Integrated Optical Intensity (I.O.I.), have been estimated in a CHEMIDOC XRS system by the QuantiOne 1-D analysis software (BioRad, Richmond, CA, USA). Values obtained have been normalized basing on densitometric values of internal β tubulin. Statistical analysis has been performed using the analysis of variance (ANOVA). Results have been expressed as mean ± SD. Values of p < 0.05 have been considered statistically significant.

[5] = PAMPA-GI permeability (egg lecithin in dodecane); assay type: in vitro ADME; conditions: read-out: PAMPA-GI Pe
Procedure: as §1, §2

[6] = pH 7.4, 18 h of incubation, read-out: PAMPA-BBB Pe

Row | Structure (SMILES) | LogKIAM/W [1] | melting point [°C] | Papp at 18 h, 500 µM ([2]; read-out: Pe, BBB penetration) [×10⁻⁶ cm/s] | Expression of APP ([3]; 1 µM) | Expression of APP ([3]; 10 µM) | Expression of APP ([3]; 100 µM) | Aβ-42 production, effect in words [4] | Expression of Aβ-42 ([4]; 1 µM) | Expression of Aβ-42 ([4]; 10 µM) | Expression of Aβ-42 ([4]; 100 µM) | Papp at 2 h, 500 µM ([5]; pH 6.5, 2 h of incubation) [×10⁻⁶ cm/s] | Papp at 2 h, 500 µM ([5]; pH 7.4, 2 h of incubation) [×10⁻⁶ cm/s] | Papp at 18 h, 500 µM [2, 6] [×10⁻⁶ cm/s]
1 | C[C@H](C(=O)N[C@@H]1C(=O)N(C)c2ccccc2-c2ccccc21)c1ccc(-c2ccccc2)c(F)c1 [Compound 7, (2S)-2-(2-Fluoro-1,1'-biphenyl-4-yl)-N-[(7S)-5-methyl-6-oxo-6,7-dihydro-5H-dibenzo[b,d]azepin-7-yl]propanamide] | 3.21 | 102 to 104 | ≥ 4 | (9.0 ± 0.3) × 10^−2 | (8.0 ± 0.3) × 10^−2 | (10.1 ± 3.2) × 10^−2 | highly effective | (12.4. ± 0.1) × 10^−2 | (11.1 ± 0.3) × 10^−2 | (9.2 ± 0.3) × 10^−2 | – | – | –
2 | CC(C)[C@H](O)C(=O)N[C@@H](C)C(=O)N[C@@H]1C(=O)N(C)CCc2ccccc21 [LY-450139, reference compound] | 0.11 | – | – | (65.9 ± 2.3) × 10^−2 | (60.0 ± 1.6) × 10^−2 | (58.8 ± 2.5) × 10^−2 | – | (9.4. ± 0.3) × 10^−2 | (5.1 ± 0.1) × 10^−2 | (5.4 ± 0.2) × 10^−2 | 1.6 | 1.8 | 1.4
3 | C[C@@H](C(=O)N[C@@H]1C(=O)N(C)c2ccccc2-c2ccccc21)c1ccc(-c2ccccc2)c(F)c1 [Compound 5, (2R)-2-(2-Fluoro-1,1'-biphenyl-4-yl)-N-[(7S)-5-methyl-6-oxo-6,7-dihydro-5H-dibenzo[b,d]azepin-7-yl]propanamide] | 3.93 | 102 to 103 | – | (41.1 ± 1.7) × 10^−2 | (44.2 ± 2.1) × 10^−2 | (49.2 ± 3.2) × 10^−2 | – | (17.4. ± 0.3) × 10^−2 | (17.1 ± 0.6) × 10^−2 | (17.4. ± 0.5) × 10^−2 | – | – | –
4 | C[C@@H](C(=O)O)c1ccc(-c2ccccc2)c(F)c1 [R-FLU, (R)-enantiomer of flurbiprofen, reference compound] | 1.82 | – | ≥ 2 | (60.0 ± 1.3) × 10^−2 | (54.5 ± 2.3) × 10^−2 | (52.1 ± 2.1) × 10^−2 | – | (20.5 ± 0.7) × 10^−2 | (19.1 ± 0.5) × 10^−2 | (14.1 ± 0.7) × 10^−2 | 2.4 | 2.1 | 1.6
5 | C[C@@H](C(=O)N[C@H]1C(=O)N(C)c2ccccc2-c2ccccc21)c1ccc(-c2ccccc2)c(F)c1 [Compound 4, (2R)-2-(2-Fluoro-1,1'-biphenyl-4-yl)-N-[(7R)-5-methyl-6-oxo-6,7-dihydro-5H-dibenzo[b,d]azepin-7-yl]propanamide] | 3.21 | 100 to 103 | ≥ 4 | (51.3 ± 2.6) × 10^−2 | (39.9 ± 1.6) × 10^−2 | (60.1 ± 2.7) × 10^−2 | – | (11.0 ± 0.4) × 10^−2 | (12.1 ± 0.4) × 10^−2 | (16.2 ± 0.7) × 10^−2 | – | – | –
6 | C[C@H](C(=O)N[C@H]1C(=O)N(C)c2ccccc2-c2ccccc21)c1ccc(-c2ccccc2)c(F)c1 [Compound 6, (2S)-2-(2-Fluoro-1,1'-biphenyl-4-yl)-N-[(7R)-5-methyl-6-oxo-6,7-dihydro-5H-dibenzo[b,d]azepin-7-yl]propanamide] | 3.93 | 104 to 105 | – | (11.3 ± 0.4) × 10^−2 | (10.4 ± 0.2) × 10^−2 | (13.5 ± 0.5) × 10^−2 | – | (19.0 ± 0.6) × 10^−2 | (16.2 ± 0.5) × 10^−2 | (13.4 ± 0.7) × 10^−2 | – | – | –
7 | C[C@H](NC(=O)[C@@H](O)c1cc(F)cc(F)c1)C(=O)N[C@@H]1C(=O)N(C)c2ccccc2-c2ccccc21 [LY-411575, reference compound] | 1.85 | – | – | (64.0 ± 2.4) × 10^−2 | (54.7 ± 2.0) × 10^−2 | (57.2 ± 1.2) × 10^−2 | – | (8.2 ± 0.1) × 10^−2 | (6.0 ± 0.1) × 10^−2 | (4.1 ± 0.2) × 10^−2 | 2.3 | 2.5 | 2
8 | C[C@H](C(=O)O)c1ccc(-c2ccccc2)c(F)c1 [S-Flurbiprofen, reference compound] | – | – | – | (60.6 ± 2.5) × 10^−2 | (65.2 ± 1.8) × 10^−2 | (53.2 ± 1.9) × 10^−2 | – | (18.8. ± 0.6) × 10^−2 | (19.0 ± 0.7) × 10^−2 | (15.4 ± 0.3) × 10^−2 | – | – | –
9 | C[C@H](NC(=O)[C@@H](C)c1ccc(-c2ccccc2)c(F)c1)C(=O)N[C@H](C(=O)OC(C)(C)C)c1ccccc1 [Compound 2, tert-Butyl(2S)-({N-[(2S)-2-(2-fluoro-1,1'-biphenyl-4-yl)propanoyl]-L-alanyl}amino)(phenyl)acetate] | 3.80 | 106 to 108 | – | (93.1 ± 2.6) × 10^−2 | (93.3 ± 3.5) × 10^−2 | (63.6 ± 2.8) × 10^−2 | highly effective | (20.0 ± 1.1) × 10^−2 | (12.1 ± 0.6) × 10^−2 | (8.4 ± 0.2) × 10^−2 | 3.6 | 4.1 | 2.1
10 | C[C@H](NC(=O)Cc1cc(F)cc(F)c1)C(=O)N[C@H](C(=O)OC(C)(C)C)c1ccccc1 [DAPT, reference compound] | 1.61 | – | – | (65.4 ± 2.8) × 10−2 | (62.1 ± 2.8) × 10−2 | (58.3 ± 1.9) × 10−2 | – | (8.3 ± 0.2) × 10−2 | (6.4 ± 0.1) × 10−2 | (5.5 ± 0.3) × 10−2 | 2.5 | 2.6 | 2.2
